6 compounds from ChEMBL document CHEMBL4184163, “Aspergillus candidus is a newly recognized source of sphaeropsidin A: Isolation, semi-synthetic derivatization and anticancer evaluation” (Bioorg Med Chem Lett, 2017) can be followed below.

For series [1], the species on record is Homo sapiens. The series can be described thus: Antiproliferative activity against human D423 cells grown as 2D culture at 0.0625 to 10 uM after 5 days by CellTiter-Glo luminescence assay. In kind it is functional, cell-based. A general note: In ATP-based viability assays light output follows the ATP content of the culture.
The species named for series [2] is Homo sapiens. Nature of the series: Antiproliferative activity against human GLI56 cells grown as 2D culture at 0.0625 to 10 uM after 5 days by CellTiter-Glo luminescence assay. The series is classed as functional, cell-based.
The species entered for series [3] is Homo sapiens. Nature of the series: Antiproliferative activity against human D423 cells grown as 3D culture at 10 uM after 5 days by CellTiter-Glo 3D viability assay. The series is classed as functional, cell-based.
Series [4] is filed under the species Homo sapiens. The series can be described thus: Cytotoxicity against human D423 cells grown as 3D culture assessed as disruption of morphological integrity at 10 uM after 5 days by confocal laser scanning microscopic method. In kind it is functional, cell-based.
The species entered for series [5] is Homo sapiens. Nature of the series: Antiproliferative activity against human GLI56 cells grown as 3D culture at 10 uM after 5 days by CellTiter-Glo 3D viability assay. The series is classed as functional, cell-based.
Series [6] is filed under the species Homo sapiens. The series can be described thus: Cytotoxicity against human GLI56 cells grown as 3D culture assessed as disruption of morphological integrity at 10 uM after 5 days by confocal laser scanning microscopic method. The series is classed as functional, cell-based.
Series [7] concerns Panel NCI-60 (60 carcinoma cell lines). Nature of the series: Growth inhibition of human NCI60 cells. The series is classed as functional.
Series [8] in a line: Growth inhibition of normal human epidermal melanocytes by MTT assay. The series is classed as cell-based, Melanocyte.

Calls of active or inactive are those of the source. The rule behind the calls is not given here.

For `CC1(C)CCC[C@]23C(=O)O[C@](O)(C(=O)C4=C[C@@](C)(/C=C/c5ccc(Cl)cc5)CC[C@@]42O)[C@@H]13`, the outcome in the series filed under Homo sapiens [1], in the series listed under Homo sapiens [2], in the series listed under Homo sapiens [3], in the series filed under Homo sapiens [4], in the series listed under Homo sapiens [5] and in the series listed under Homo sapiens [6] was Active.

For `C=CCCCC(=O)O[C@]12OC(=O)[C@@]3(CCCC(C)(C)[C@H]13)[C@@]1(O)CC[C@](C)(C=C)C=C1C2=O`, the outcome in the series filed under Homo sapiens [1], in the series filed under Homo sapiens [2], in the series filed under Homo sapiens [5] and in the series listed under Homo sapiens [6] was Active. Further, in the series listed under Homo sapiens [3], the result was inactive.

With `C=C[C@]1(C)C=C2C(=O)[C@@]3(OC(=O)CCC)OC(=O)[C@@]4(CCCC(C)(C)[C@H]34)[C@@]2(O)CC1`, the result in the series listed under Homo sapiens [1], in the series listed under Homo sapiens [2], in the series listed under Homo sapiens [5] and in the series filed under Homo sapiens [6] was Active. Moreover, the result in the series filed under Homo sapiens [3] was inactive.

For `CC1(C)CCC[C@]23C(=O)O[C@](O)(C(=O)C4=C[C@@](C)(/C=C/[Si](C)(C)C)CC[C@@]42O)[C@@H]13`, the outcome in the series filed under Homo sapiens [1] and in the series listed under Homo sapiens [2] was Active. Besides, the result in the series listed under Homo sapiens [3] and in the series listed under Homo sapiens [5] was inactive.

For the compound `C=C[C@]1(C)C=C2C(=O)[C@@]3(OC(=O)c4ccc(C)o4)OC(=O)[C@@]4(CCCC(C)(C)[C@H]34)[C@@]2(O)CC1`, the result in the series listed under Homo sapiens [1], in the series filed under Homo sapiens [2], in the series filed under Homo sapiens [3], in the series filed under Homo sapiens [4], in the series listed under Homo sapiens [5] and in the series filed under Homo sapiens [6] was Active.

In the case of `C=C[C@]1(C)C=C2C(=O)[C@@]3(O)OC(=O)[C@@]4(CCCC(C)(C)[C@H]34)[C@@]2(O)CC1` [SPHAEROPSIDIN A], the outcome in the series filed under Homo sapiens [1] and in the series listed under Homo sapiens [2] was Active. Besides, the outcome in the series filed under Homo sapiens [3], in the series filed under Homo sapiens [5] and in the series filed under Homo sapiens [6] was inactive. For the same compound, the concentration for 50% growth inhibition (GI50) in series [7] is 1.6 µM; in series [8] it was 13 µM.

As usually defined, the GI50 is the concentration giving 50% growth inhibition. A lower GI50 goes with greater sensitivity of the cells.
